According to PMC4721923 (PLoS ONE, 2015):
Where two headings read alike, the source gives them in different places.

Legend:
[1] = tested on: SK-MEL-3 cells (malignant melanoma); assay: Chemosensitivity assay (crystal violet assay), SK-MEL-3; assay type: cell-based, human; conditions: mean ± SEM
Description: (§1) Depending on the characteristics of the cells, two different assays were performed. For adherently growing cells (HaCaT, HT-29, NCI-H460, SK-MEL-3, MG-63, Capan-1), cytotoxic and cytocidal effects were determined in the crystal violet assay, whereas for loosely adherent cells (LNCaP, SK-ES-1) and cells growing in suspension (HEL 92.1.7, Jurkat, U-937) the MTT-assay was used with minor modifications. In brief, 1.5 · 10^3 (HaCaT, HT-29, NCI-H460, SK-MEL-3, MG-63, Capan-1) or 5 · 10^3 (Jurkat, U-937, HEL92.1.7, LNCaP, SK-ES-1) cells per well were seeded into flat-bottom 96-well plates (Sarstedt, Nümbrecht, Germany). All compounds were used as solutions prepared in DMSO and tested at final concentrations (8 replicates per concentration) of 1, 3, 10, 30 and 50 μM. In case of the vehicle control and test compounds, the final DMSO concentration amounted to 0.1%. Absorbance was measured at 580 nm in a 96-well plate reader (GENios pro microplate reader, Tecan, Salzburg, Austria). Effects were quantified as previously described for both assays.

[2] = tested on: HT-29 cells (colorectal adenocarcinoma); assay: Chemosensitivity assay (crystal violet assay), HT-29; assay type: cell-based, human; conditions: 96 hours of incubation, mean ± SEM
Description: as §1

[3] = tested on: LNCaP cells (prostate cancer); assay: Chemosensitivity assay (MTT-assay), LNCaP; assay type: cell-based, human; conditions: 96 hours of incubation, mean ± SEM
Description: as §1

[4] = tested on: U-937 cells (histiocytic lymphoma); assay: Chemosensitivity assay (MTT-assay), U-937; assay type: cell-based, human; conditions: 96 hours of incubation, mean ± SEM
Description: as §1

OCT1 = target: T1, OCT1 (Homo sapiens, UniProt O15245); assay: Flow cytometric ASP+-uptake inhibition, HEK-OCT1; assay type: cell-based; conditions: for IC50: IC50, inhibition of ASP+-uptake, HEK-OCT1, 1 μM ASP+, ± SEM (N = 3)
T1 construct: containing the full length SLC22A1 cDNA (NM_003057) encoding the human OCT1 protein; expressed in transfected cells
T1 sequence (O15245 1-554): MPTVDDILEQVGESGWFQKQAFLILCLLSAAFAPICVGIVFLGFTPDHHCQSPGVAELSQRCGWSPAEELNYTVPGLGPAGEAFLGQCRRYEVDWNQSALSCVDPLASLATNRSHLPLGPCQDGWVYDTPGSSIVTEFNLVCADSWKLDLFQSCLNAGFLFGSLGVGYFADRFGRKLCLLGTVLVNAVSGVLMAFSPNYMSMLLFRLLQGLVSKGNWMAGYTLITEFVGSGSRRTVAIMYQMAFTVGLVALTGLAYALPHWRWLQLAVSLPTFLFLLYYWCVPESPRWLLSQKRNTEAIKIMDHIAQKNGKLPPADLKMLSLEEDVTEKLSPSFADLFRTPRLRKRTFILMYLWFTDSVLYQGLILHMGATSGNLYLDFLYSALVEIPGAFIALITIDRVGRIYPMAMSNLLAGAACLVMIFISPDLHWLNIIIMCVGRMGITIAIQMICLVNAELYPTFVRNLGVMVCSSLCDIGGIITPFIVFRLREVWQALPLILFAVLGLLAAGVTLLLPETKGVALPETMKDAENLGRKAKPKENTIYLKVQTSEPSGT
Description: (§2) The previously described fluorescent substrate of organic cation transporters, 4-(4-dimethylaminostyryl)-N-methylpyridinium (ASP^+), was used to determine the function of OCT1 and OCT3 by flow cytometry in the absence and the presence of bendamustine and selected bendamustine esters. HEK293 cells expressing the transporter of interest were trypsinized and washed twice with PBS, prior to re-suspension of 0.5 · 10^6 cells in 500 μL of PBS containing 2% (v/v) FCS. The cells were incubated with ASP^+ (100 μM stock solution in PBS containing 10% DMSO) for 5 minutes, allowing for cellular accumulation, and subsequently analyzed with a FACSCalibur flow cytometer. ASP^+ was excited at 488 nm and the fluorescence was measured using a 530/30 nm and a 585/42 band-pass filter. At least 1 · 10^4 single cells were analyzed by appropriate FSC/SSC gating.
(§3) The cells were pre-incubated with the respective test compound at different concentrations at room temperature for 10 minutes. Afterwards, ASP^+ was added to a final concentration of 1 μM, and the samples were incubated at 37°C in the dark for 5 minutes. Subsequently, the cells were washed, re-suspended in ice-cold PBS/FCS and stored on ice in the dark until measurement.
(§4) The normalized mean fluorescence intensities of the OCT expressing cells, set to 100% in the absence of an inhibitor, were calculated by subtracting the mean fluorescence intensity of unspecific ASP^+ uptake into HEK-Co control cells. The normalized fluorescence intensities in the presence of an inhibitor were plotted against the logarithm of the concentrations of the test compounds to calculate IC50 values. The “log (inhibitor) vs. normalized response-variable slope” equation of GraphPad Prism 5.01 was used for this purpose.

OCT3 = target: T2, OCT3 (Homo sapiens, UniProt O75751); assay: Flow cytometric ASP+-uptake inhibition, HEK-OCT3; assay type: cell-based; conditions: for potency relative to TPA at OCT3: from IC50 values, p ≤ 0.05
T2 construct: expressed in transfected cells; host or cells: HEK293 (HEK-OCT3)
T2 sequence (O75751 1-556): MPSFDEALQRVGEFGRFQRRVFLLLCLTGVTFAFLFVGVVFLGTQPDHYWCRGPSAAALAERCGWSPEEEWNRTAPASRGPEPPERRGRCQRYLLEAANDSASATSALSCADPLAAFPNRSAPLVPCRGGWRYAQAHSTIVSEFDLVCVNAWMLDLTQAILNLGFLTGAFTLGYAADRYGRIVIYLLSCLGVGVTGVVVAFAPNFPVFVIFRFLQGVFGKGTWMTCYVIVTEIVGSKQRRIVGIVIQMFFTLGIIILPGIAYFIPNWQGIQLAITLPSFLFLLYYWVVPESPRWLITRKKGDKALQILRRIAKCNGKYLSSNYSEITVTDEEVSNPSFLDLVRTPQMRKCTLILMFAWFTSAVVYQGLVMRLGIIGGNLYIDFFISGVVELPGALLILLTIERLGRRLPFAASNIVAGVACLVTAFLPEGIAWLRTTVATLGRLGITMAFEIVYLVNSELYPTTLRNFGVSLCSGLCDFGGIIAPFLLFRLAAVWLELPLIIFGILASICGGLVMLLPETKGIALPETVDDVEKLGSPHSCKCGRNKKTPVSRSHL
Description: as §2, §3, §4

[5] = tested on: NCI-H460 cells (large cell lung cancer); assay: Chemosensitivity assay (crystal violet assay), NCI-H460; assay type: cell-based, human; conditions: 96 hours of incubation, mean ± SEM
Description: as §1

[6] = Homo sapiens, SK-MEL3, 96 hours of incubation, read-out: IC50

SMILES	IC50 ([1]; 96 hours of incubation)	IC50 [1, 6] [µM]	IC50 [2]	IC50 ([2]; Homo sapiens, read-out: IC50) [µM]	IC50 [3]	IC50 ([3]; Homo sapiens, read-out: IC50) [µM]	IC50 [4] [µM]	IC50 ([4]; Homo sapiens, U-937, 96 h) [µM]	IC50 (OCT1) [µM]	inhibition at 5 min, 200 µM (OCT1; human, 200 μM (highest examined concentration)) [%]	IC50 (OCT3) [µM]	inhibition at 200 µM (OCT3; read-out: inhibition of OCT3) [%]	IC50 [5]	IC50 ([5]; Homo sapiens, read-out: IC50) [µM]	potency relative to TPA at OCT3 (OCT3)	potency factor relative to TPA at OCT1 (OCT1; from IC50 values)
Cn1c(CCCC(=O)O)nc2cc(N(CCCl)CCCl)ccc21 [Compound 1, bendamustine, reference compound]	ineffective	> 100	ineffective	> 100	only very weakly active	77.9 ± 5.6	83.4 ± 8.5	> 80	> 200	35	> 200	37	only very weakly active	90 ± 4.3		
COC(=O)CCCc1nc2cc(N(CCCl)CCCl)ccc2n1C [Compound 2]		13.8 ± 0.4		9.4 ± 0.4		0.95 ± 0.15		1.8 ± 0.1	11.3 ± 1.9		5.1 ± 1.4			4.8 ± 0.3	approximately four	
Cn1c(CCCC(=O)OCCN2CCOCC2)nc2cc(N(CCCl)CCCl)ccc21 [Compound 4]		20.9 ± 0.9		9 ± 0.5		2.2 ± 0.1		3.2 ± 0.96	10.1 ± 2.5		5.1 ± 0.02			9.7 ± 1.3	approximately four	
Cn1c(CCCC(=O)OCCN2CCCC2)nc2cc(N(CCCl)CCCl)ccc21 [Compound 5]		0.83 ± 0.18		1.1 ± 0.1		0.5 ± 0.08		0.83 ± 0.19	0.35 ± 0.03		3.41 ± 0.16			0.9 ± 0.01	approximately four	approximately 20
